Active and inactive are the calls of the source. The rule behind the calls is not given here.
What was measured:
[1] = biological target: T1, 4-galactosyl-N-acetylglucosaminide 3-alpha-L-fucosyltransferase 9 (Homo sapiens) (UniProt Q9Y231); experiment: (§1) Inhibition of human recombinant alpha1,3-fucosyltransferase 9 using GDP-[14C]-fucose preincubated for 30 mins by liquid scintillation counting; parameters: concentration or dose not given beside the values
T1 sequence (whole entry): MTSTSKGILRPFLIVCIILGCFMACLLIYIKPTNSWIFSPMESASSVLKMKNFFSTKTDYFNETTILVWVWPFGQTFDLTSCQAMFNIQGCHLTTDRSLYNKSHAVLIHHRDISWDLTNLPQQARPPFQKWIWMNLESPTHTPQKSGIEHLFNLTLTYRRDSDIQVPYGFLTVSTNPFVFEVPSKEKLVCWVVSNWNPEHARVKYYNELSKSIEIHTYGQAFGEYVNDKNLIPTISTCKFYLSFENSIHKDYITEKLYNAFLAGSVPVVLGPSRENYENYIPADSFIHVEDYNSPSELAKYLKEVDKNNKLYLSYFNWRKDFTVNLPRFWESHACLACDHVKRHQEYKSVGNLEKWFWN

[2] = tested on: Helicobacter pylori; experiment: Inhibition of Helicobacter pylori recombinant alpha1,3-fucosyltransferase using GDP-[14C]-fucose preincubated for 30 mins by liquid scintillation counting
[3] = biological target: T2, 4-galactosyl-N-acetylglucosaminide 3-alpha-L-fucosyltransferase 9 (Homo sapiens, UniProt Q9Y231); experiment: as §1
T2 sequence (Q9Y231 whole entry): T1 sequence (whole entry)

[4] = tested on: Helicobacter pylori; experiment: Inhibition of Helicobacter pylori recombinant alpha1,3-fucosyltransferase using GDP-[14C]-fucose assessed as remaining activity preincubated for 30 mins by liquid scintillation counting

SMILES | inhibition [1] | inhibition [2] | IC50 [3] | Ki [3] | Activity [4]
C[C@@H](O)[C@H](O)[C@H](O)[C@@H](O)C=O | inactive | Active | – | – | –
C[C@@H]1O[C@H](n2cc(COP(=O)(O)OP(=O)(O)OC[C@H]3O[C@@H](n4cnc5c(=O)[nH]c(N)nc54)[C@H](O)[C@@H]3O)nn2)[C@@H](O)[C@H](O)[C@@H]1O | – | – | 139 µM | 137 µM | –
NC[C@@H]1O[C@H](OP(=O)(O)OP(=O)(O)OC[C@H]2O[C@@H](n3cnc4c(=O)[nH]c(N)nc43)[C@H](O)[C@@H]2O)[C@@H](O)[C@H](O)[C@@H]1O | 78% | – | 104 µM | 102 µM | –
Nc1nc2c(ncn2[C@@H]2O[C@H](COP(=O)(O)OP(=O)(O)OP(=O)(O)O)[C@@H](O)[C@H]2O)c(=O)[nH]1 [GUANOSINE TRIPHOSPHATE] | < 75% | < 75% | 94 µM | 80.7 µM | –
O=c1[nH]cnc2c1ncn2[C@@H]1O[C@H](COP(=O)(O)OP(=O)(O)O)[C@@H](O)[C@H]1O | 30% | 65% | – | – | –
Nc1nc2c(ncn2[C@@H]2O[C@H](COP(=O)(O)OP(=O)(O)OCc3cn([C@@H]4O[C@H](CO)[C@@H](O[C@@H]5O[C@H](CO)[C@H](O)[C@H](O)[C@H]5O)[C@H](O)[C@H]4O)nn3)[C@@H](O)[C@H]2O)c(=O)[nH]1 | 45% | – | – | – | –
Nc1nc2c(ncn2[C@@H]2O[C@H](COP(=O)(O)OP(=O)(O)OCc3cn([C@@H]4O[C@H](CO)[C@H](O)[C@H](O)[C@H]4O)nn3)[C@@H](O)[C@H]2O)c(=O)[nH]1 | – | – | 247 µM | 186 µM | –
C[C@H]1O[C@@H](n2cc(COP(=O)(O)OP(=O)(O)OC[C@H]3O[C@@H](n4cnc5c(=O)[nH]c(N)nc54)[C@H](O)[C@@H]3O)nn2)[C@H](O)[C@@H](O)[C@H]1O | – | – | 134 µM | 190 µM | –
Nc1nc2c(ncn2[C@@H]2O[C@H](COP(=O)(O)OP(=O)(O)O)[C@@H](O)[C@H]2O)c(=O)[nH]1 | – | < 75% | 59 µM | 77.9 µM | –
Nc1ncnc2c1ncn2[C@@H]1O[C@H](COP(=O)(O)OP(=O)(O)O)[C@@H](O)[C@H]1O | inactive | Active | – | – | –
Nc1nc2c(ncn2[C@@H]2O[C@H](COP(=O)(O)O)[C@@H](O)[C@H]2O)c(=O)[nH]1 | inactive | Active | – | – | –
Nc1nc2c(ncn2[C@H]2C[C@H](O)[C@@H](CO[P@](=O)(O)OP(=O)(O)O)O2)c(=O)[nH]1 | < 80% | – | 49 µM | 50.3 µM | 60%
CC(=O)Nc1nc2c(ncn2[C@@H]2O[C@H](COP(=O)(O)OP(=O)(O)OCc3cn([C@@H]4O[C@H](COC(C)=O)[C@H](OC(C)=O)[C@H](OC(C)=O)[C@H]4OC(C)=O)nn3)[C@@H](OC(C)=O)[C@H]2OC(C)=O)c(=O)[nH]1 | inactive | 45% | – | – | –
